Assay results taken from patent publication US20240327392A1, “HETEROCYCLOALKYL-SUBSTITUTED POLYHETEROAZOLE DERIVATIVES AS MEDICAMENTS FOR TREATING AND/OR PREVENTING RS VIRUS INFECTIONS” (ALBIUS SCIENCES ALPHA PRIVATE LIMITED, priority 2021, published 2024).

test system: human RS virus A2 strain; experiment: In vitro test for anti-RS virus proliferation inhibitory activity (quantitative RT-PCR of RS virus RNA copy number in infected Vero cells); type: cell-based; details: 72 h; Vero cells infected with human RS virus A2 strain, 3 days of incubation, RS virus N gene RNA copy number by quantitative RT-PCR; read-out: Anti-RS virus Activity
Outline: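 Vero cells infected with RSV A2 (1.7×10^4 TCID50/mL in inoculum mix) with compound in 10% FCS EMEM, 3 days at 37 °C, 5% CO2. Lysate viral N-gene RNA quantified by one-step SYBR qRT-PCR; copy number by comparative Ct relative to untreated infected cells.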

Row | Structure (SMILES) | IC50
1 | CC(C)(C)O[C@@H]1C[C@@H](c2nc(CCCc3ccccc3)no2)N(S(=O)(=O)C2CCCCC2)C1 [Compound 4B, 3-(3-phenylpropyl)-5-[(2S,4R)-4-tert-butoxy-1-cyclohexylsulfonyl-pyrrolidin-2-yl]-1,2,4-oxadiazole] | < 10 µM
2 | CC(C)(C)OC(=O)N1CCCC[C@H]1c1nc(CCCc2ccccc2)no1 [Compound 2-1, 3-(3-phenylpropyl)-5-[(2S)-1-tert-butoxycarbonylpiperidin-2-yl]-1,2,4-oxadiazole] | 10 to 50 µM
3 | O=S(=O)(c1ccccc1)N1CCCC[C@H]1c1nc(CCCc2ccccc2)no1 [Compound 2D, 3-(3-phenylpropyl)-5-[(2S)-1-benzenesulfonylpiperidin-2-yl]-1,2,4-oxadiazole] | < 10 µM
4 | O=C(c1ccc2cc(C(=O)N3C[C@H](O)C[C@H]3c3nc(CCCc4ccccc4)no3)ccc2c1)N1C[C@H](O)C[C@H]1c1nc(CCCc2ccccc2)no1 [Compound 4-6, Naphthalene-2,6-diylbis(((2S,4R)-4-hydroxy-2-(3-(3-phenylpropyl)-1,2,4-oxadiazol-5-yl)pyrrolidin-1-yl)methanone)] | > 50 µM

same assay, conditions: 72 h; Vero cells infected with human RS virus A2 strain, 3 days of incubation, RS virus RNA copy number by quantitative RT-PCR; read-out: Anti-RS virus Activity

Row | Structure (SMILES) | IC50
5 | CC(C)(C)OC(=O)N1CCCC[C@H]1c1nc(CCc2ccncc2)no1 [Compound 12-1, Tert-butyl (S)-2-(3-(2-(pyridin-4-yl)ethyl)-1,2,4-oxadiazol-5-yl)piperidine-1-carboxylate] | < 10 µM
6 | CC(C)(C)NC(=O)N1CCCC[C@H]1c1nc(CCc2ccncc2)no1 [Compound 12H, (S)—N-(tert-butyl)-2-(3-(2-(pyridin-4-yl)ethyl)-1,2,4-oxadiazol-5-yl)piperidine-1-carboxamide] | 10 to 50 µM
7 | O=S(=O)(Cc1ccccc1)N1CC(c2ccccc2)C[C@H]1c1nc(CCCc2ccccc2)no1 (stereo in doubt) [Compound 7E, 3-(3-Phenylpropyl)-5-[(2S,4S)-1-benzylsulfonyl-4-phenylpyrrolidin-2-yl]-1,2,4-oxadiazole] | > 50 µM
8 | CC(C)(C)NC(=O)N1C[C@H]2CC[C@]1(c1nc(CCc3ccncc3)no1)CC2 [Compound 13H, (1s, 4s)-N-(tert-butyl)-1-(3-(2-(pyridin-4-yl)ethyl)-1,2,4-oxadiazol-5-yl)-2-azabicyclo[2.2.2]octane-2-carboxamide] | > 50 µM
9 | COc1ccc(CCCc2noc([C@@H]3CCCCN3S(=O)(=O)C3CCCCC3)n2)cc1OC [Compound 22B, (S)-5-(1-(cyclohexylsulfonyl)piperidin-2-yl)-3-(3-(3,4-dimethoxyphenyl)propyl)-1,2,4-oxadiazole] | < 10 µM
10 | CC(C)(C)OC(=O)N1CC(CS(=O)(=O)N2C[C@H](c3ccccc3)C[C@H]2c2nc(CCCc3ccccc3)no2)C1 [Compound 7AM, tert-buthyl 3-((((2S,4S)-4-phenyl2-(3-(3-phenylpropyl)-1,2,4-oxadiazole-5-yl)pyrrolidin-1-yl)sulfonyl)methyl)azetidin-1-carboxylate] | < 10 µM
11 | CC(C)(C)OC(=O)N1CCCC[C@H]1c1nnc(CCCc2ccccc2)[nH]1 [Compound 20-1, Tert-butyl (S)-2-(5-(3-phenylpropyl)-4H-1,2,4-triazol-3-yl) piperidine-1-carboxylate] | < 10 µM
12 | CC(C)(C)OC(=O)N1C[C@@H](CC2CCC2)C[C@H]1c1nc(CCCc2ccccc2)no1 (racemic) [Compound 6-1, 3-(3-phenylpropyl)-5-(1-tert-butoxycarbonyl-4-cyclobutylmethylpyrrolidin-2-yl)-1,2,4-oxadiazole] | < 10 µM
13 | COc1ccc(S(=O)(=O)N2CC(CC3CCC3)CC2c2nc(CCCc3ccccc3)no2)cc1 (centres unmarked) [Compound 6AI, 5-(4-(cyclobuthylmethyl)-1-((4-methoxyphenyl)sulfonyl)pyrrolidin-2-yl)-3-(3-phenylpropyl)-1,2,4-oxadiazole] | < 10 µM
14 | CC(C)(C)OC(=O)N1[C@@H]2CC[C@@H](C2)[C@H]1c1nnc(CCc2ccncc2)[nH]1 [Compound 25-1, Tert-butyl (1R,3S,4S)-3-(5-(2-(pyridin-4-yl)ethyl)-4H-1,2,4-triazol-3-yl)-2-azabicyclo[2.2.1]heptane-2-carboxylate] | 10 to 50 µM
15 | CC(C)(C)OC(=O)N1CCCC[C@H]1c1nc(CCc2ccccc2)no1 [Compound 10-1, 3-(3-phenylethyl)-5-[(2S)-1-tert-butoxycarbonylpiperidin-2-yl]-1,2,4-oxadiazole] | 10 to 50 µM
16 | COC(=O)c1nc([C@@H]2CCCCN2S(=O)(=O)C2CCCCC2)sc1C [Compound 35B, Methyl (S)-2-(1-(cyclohexylsulfonyl)piperidin-2-yl)-5-methylthiazole-4-carboxylate] | 10 to 50 µM
17 | O=S(=O)(c1ccc(F)cc1)N1CCC[C@H]1c1cn(Cc2ccccc2)nn1 [Compound 39AJ, (S)-1-Benzyl-4-(1-((4-fluorophenyl)sulfonyl)pyrrolidin-2-yl)-1H-1,2,3-triazole] | < 10 µM
18 | O=S(=O)(N1CCOCC1)N1C[C@H](c2ccccc2)C[C@H]1c1nc(CCCc2ccccc2)no1 [Compound 7AE, 4-(((2S,4S)-4-phenyl2-(3-(3-phenylpropyl)-1,2,4-oxadiazole-5-yl)pyrrolidin-1-yl)sulfonyl) morpholine] | 10 to 50 µM

Further lines, results first:

Row | IC50 | Structure (SMILES)
19 | 10 to 50 µM | O=S(=O)(N1CCCCC1)N1CC2(CC2)C[C@H]1c1nc(CCCc2ccccc2)no1 [Compound 5AD, (S)-3-(3-phenylpropyl)-5-(5-(piperidin-1-ylsulfonyl)-5-azaspiro[2.4]heptan-6-yl)-1,2,4-oxadiazole]
20 | < 10 µM | CC(C)CC(=O)N1CCC[C@H]1c1nc(CCCc2ccccc2)no1 [Compound 1Q, (S)-3-Methyl-1-(2-(3-(3-phenylpropyl)-1,2,4-oxadiazol-5-yl)pyrrolidin-1-yl) butan-1-one]
21 | 10 to 50 µM | O=S(=O)(N1CCCCC1)N1CC(CC2CCC2)CC1c1nc(CCCc2ccccc2)no1 (centres unmarked) [Compound 6AD, 5-(4-(cyclobuthylmethyl)-1-(piperidin-1-ylsulfonyl)pyrrolidin-2-yl)-3-(3-phenylpropyl)-1,2,4-oxadiazole]
22 | < 10 µM | CC(C)CCN1CCC[C@H]1c1nc(CCCc2ccccc2)no1 [Compound 1T, (S)-5-(1-isopentylpyrrolidin-2-yl)-3-(3-phenylpropyl)-1,2,4-oxadiazole]
23 | < 10 µM | CS(=O)(=O)N1CC(CC2CCC2)CC1c1nc(CCCc2ccccc2)no1 (centres unmarked) [Compound 6C, 3-(3-phenylpropyl)-5-(1-methanesulfonyl-4-cyclobutylmethylpyrrolidin-2-yl)-1,2,4-oxadiazole]
24 | < 10 µM | c1ccc(CCCc2noc([C@@H]3CCCN3CC3CCCCC3)n2)cc1 [Compound 1U, (S)-5-(1-(cyclohexylmethyl)pyrrolidin-2-yl)-3-(3-phenylpropyl)-1,2,4-oxadiazole]
25 | < 10 µM | O=C(c1ccccc1)N1CCC[C@H]1c1nc(CCCc2ccccc2)no1 [Compound 1S, (S)-Phenyl(2-(3-(3-phenylpropyl)-1,2,4-oxadiazol-5-yl)pyrrolidin-1-yl)methanone]
26 | < 10 µM | O=S(=O)(C1CCOCC1)N1CC(CC2CCC2)CC1c1nc(CCCc2ccccc2)no1 (centres unmarked) [Compound 6AP, 5-(4-(cyclobuthylmethyl)-1-((tetrahydro-2H-pyran-4-yl)sulfonyl)pyrrolidin-2-yl)-3-(3-phenylpropyl)-1,2,4-oxadiazole]
